Results published in US20250302823A1, “COMPOSITIONS AND METHODS FOR TREATING HEPATIC […] GLYCINE TRANSPORT INHIBITORS” (Disc Medicine, Inc., priority 2022, published 2025).
pIC50: −log10 of the molar value.

Columns and labels:
[1] = system: HepG2 cells transduced with shHMBS, GlyT1, ALAS1; assay: 5-ALA and PBG production in AIP cellular model (HepG2 with shHMBS, GlyT1, ALAS1); assay type: cell-based, human
From the text: The hepatic origin cell line HepG2 was engineered to express shRNA against HMBS, a gene in the heme biosynthesis pathway whose loss-of-function mutations cause hepatic porphyria. The shRNA reduced HMBS mRNA by 50% and HMBS protein by 70%. Hepatic porphyria is a dormant disease activated by increased expression of ALAS1. To establish the cellular model that resembles the pathologic status of hepatic porphyria, the HepG2 cells with HMBS knockdown were also transduced by lentivirus to overexpress ALAS1 and GlyT1.
The normal plasma glycine concentration in human adults ranges from 0.12 to 0.55 mM. To confirm GlyT1 inhibitors such as bitopertin can decrease production of toxic metabolites at physiological condition, the modified HepG2 cells were treated with bitopertin in the presence of different concentrations of glycine (0.1-1 mM).

GlyT1 = target: T1, GlyT1 (Homo sapiens, UniProt P48067); assay: 3H-glycine uptake in HepG2 cells overexpressing GlyT1; assay type: cell-based
T1 construct: expressed in transfected cells; host or cells: HepG2, lentiviral infection (pLenti6.3-GlyT1)
T1 sequence (P48067 1-706): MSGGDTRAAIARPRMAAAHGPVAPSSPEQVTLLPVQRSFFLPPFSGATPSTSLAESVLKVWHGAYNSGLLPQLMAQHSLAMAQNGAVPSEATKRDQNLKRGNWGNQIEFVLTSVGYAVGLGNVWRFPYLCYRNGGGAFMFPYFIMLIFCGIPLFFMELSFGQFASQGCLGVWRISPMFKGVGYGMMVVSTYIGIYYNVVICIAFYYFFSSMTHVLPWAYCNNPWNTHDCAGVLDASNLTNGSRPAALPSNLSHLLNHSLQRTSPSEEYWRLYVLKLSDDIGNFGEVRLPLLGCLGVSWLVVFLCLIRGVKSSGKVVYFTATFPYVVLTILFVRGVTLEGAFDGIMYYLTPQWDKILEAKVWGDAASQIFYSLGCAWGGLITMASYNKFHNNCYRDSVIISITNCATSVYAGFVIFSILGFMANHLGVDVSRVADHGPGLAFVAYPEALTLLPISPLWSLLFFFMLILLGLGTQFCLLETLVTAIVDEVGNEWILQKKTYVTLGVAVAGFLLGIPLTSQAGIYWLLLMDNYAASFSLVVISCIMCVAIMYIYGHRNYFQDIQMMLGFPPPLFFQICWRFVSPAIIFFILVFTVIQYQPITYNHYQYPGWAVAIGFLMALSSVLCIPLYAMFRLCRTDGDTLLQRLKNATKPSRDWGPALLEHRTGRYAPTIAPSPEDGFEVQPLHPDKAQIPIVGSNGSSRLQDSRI
Protocol: The hepatic originated cell line HepG2 cell was engineered via lentiviral infection to overexpress untagged GlyT1 (FIG. 4A) or HA-Flag-tagged GlyT1 (FIG. 4B). Overexpression of GlyT1 was used to mimic the phenobarbital induced AIP symptoms observed in HepG2 as described in Example 3. The HA-Flag tagged construct was used to confirm the overexpression of the GlyT1 protein by Western blot. Overexpression of the untagged construct was confirmed by qPCR. The cells were cultured in the presence of the GlyT1 inhibitor bitopertin at room temperature for 60 min and then incubated with 20 nM ^3H-labeled glycine in the presence of 25 μM unlabeled glycine for 60 min. The uptake of glycine was measured by detection of radioisotope levels.

[2] = system: ALAS1 and GlyT1 mRNA in HepG2 cells; assay: qPCR expression of ALAS1 and GlyT1 in HepG2 cells after phenobarbital

Row | Structure (SMILES) | toxic metabolite 5-ALA at different glycine concentrations ([1]; glycine 0.1-1 mM in medium, FIG. 6A) | toxic metabolite PBG at different glycine concentrations ([1]; glycine 0.1-1 mM in medium, FIG. 6B) | production of toxic metabolite 5-ALA ([1]; modified HepG2 cells, FIG. 5A) | production of toxic metabolite PBG ([1]; modified HepG2 cells, FIG. 5B) | pIC50 (GlyT1; engineered HepG2 overexpressing untagged or HA-Flag-tagged GlyT1, 20 nM 3H-glycine + 25 μM unlabeled glycine, 60 min) | glycine uptake in the engineered HepG2 cells (GlyT1; in the presence of bitopertin) | increase of mRNA of ALAS1 and GlyT1 ([2]; HepG2, 24 h after phenobarbital treatment) [fold] | increase of mRNA of ALAS1 and GlyT1 ([2]; HepG2, 48 h after phenobarbital treatment) [fold]
1 | C[C@H](Oc1ccc(S(C)(=O)=O)cc1C(=O)N1CCN(c2ncc(C(F)(F)F)cc2F)CC1)C(F)(F)F [bitopertin] | consistent reduction | consistent reduction | significantly decrease | significantly decrease | 5.81 to 6.15 | significantly reduced |  | 
2 | CCC1(c2ccccc2)C(=O)NC(=O)NC1=O [phenobarbital] |  |  |  |  |  |  | 3 | 6
